Reference: article PMC7816196, “Antitubercular 2-Pyrazolylpyrimidinones: Structure–Activity Relationship and Mode-of-Action Studies” (Journal of Medicinal Chemistry, 2021)

How the values were obtained:
Type in all cases: cell-based, Mycobacterium tuberculosis
MmpL3 F255L = tested on: MmpL3 F255L
MmpL3 V681 = tested on: MmpL3 V681
MmpL3 G596R = tested on: MmpL3 G596R

| SMILES | MmpL3 F255L MIC (MmpL3 F255L) [µM] | MmpL3 V681 MIC (MmpL3 V681) [µM] | MmpL3 G596R MIC (MmpL3 G596R) [µM] |
| --- | --- | --- | --- |
| Cc1cc(Nc2ccc(F)cc2)n(-c2nc(C(F)(F)F)cc(=O)[nH]2)n1 [Compound 40, 2-(5-((4-Fluorophenyl)amino)-3-methyl-1H-pyrazol-1-yl)-6-(trifluoromethyl)pyrimidin-4(3H)-one] | >200 |  |  |
| CC(=O)Nc1cc(C)nn1-c1nc(-c2ccccc2)cc(=O)[nH]1 [Compound 15, N-(3-Methyl-1-(4-oxo-6-phenyl-1,4-dihydropyrimidin-2-yl)-1H-pyrazol-5-yl)acetamide] | >200 | >200 | >200 |
